# Assay results as given in the NIST ThermoML archive (doi:10.1016/j.fluid.2007.06.010).
# ± gives the expanded uncertainty stated by the source.
# Experiment: refractive index (Na D-line) (dimensionless)
# Conditions: 298.15 K; 101.33 kPa; Liquid; Standard Abbe refractometry
row,Compound,refractive index
1,Cc1ccccc1 [toluene],1.494 ± 0.0007
2,"CC(C)CC(C)(C)C [2,2,4-trimethylpentane]",1.389 ± 0.0007
3,c1ccsc1 [thiophene],1.5255 ± 0.0007
4,CCOC(C)(C)C [2-ethoxy-2-methylpropane],1.373 ± 0.0007
